Patent publication US11786517B2, “Methods of treatment using a JAK inhibitor compound” (THERAVANCE BIOPHARMA R&D IP, LLC, priority 2017, dated 2023)

Tested on: BALF eosinophils
Experiment: Murine model of Alternaria alternata-induced eosinophilic inflammation of the lung
Type: in vivo, C57 mice
Details: mouse, oropharyngeal aspiration 0.1-1.0 mg/mL, forty-eight hours after alternaria challenge
Procedure: Airway eosinophilia is a hallmark of human asthma. Alternaria alternata is a fungal aeroallergen that can exacerbate asthma in humans and induces eosinophilic inflammation in the lungs of mice (Havaux et al. Clin Exp Immunol. 2005, 139(2):179-88).
Seven- to nine-week old male C57 mice from Taconic were used in the study. On the day of study, animals were lightly anesthetized with isoflurane and administered either vehicle or test compound (0.1-1.0 mg/mL, 50 μL total volume over several breaths) via oropharyngeal aspiration. Animals were placed in lateral recumbency post dose and monitored for full recovery from anesthesia before being returned to their home cage. One hour later, animals were once again briefly anesthetized and challenged with either vehicle or alternaria extract (200 ug total extract delivered, 50 μL total volume) via oropharyngeal aspiration before being monitored for recovery from anesthesia and returned to their home cage. Forty-eight hours after alternaria administration, bronchoalveolar lavage fluid (BALF) was collected and eosinophils were counted in the BALF using the Advia 120 Hematology System (Siemens).
Activity in the model is evidenced by a decrease in the level of eosinophils present in the BALF of treated animals at forty-eight hours compared to the vehicle treated, alternaria challenged control animals. […]

**Q.** With `CCc1cc(O)c(F)cc1-c1ccc2c(-c3nc4c([nH]3)CCN(C3CCN(C)CC3)C4)n[nH]c2c1` [compound 1, 5-ethyl-2-fluoro-4-(3-(5-(1-methylpiperidin-4-yl)-4,5,6,7-tetrahydro-1H-imidazo[4,5-c]pyridin-2-yl)-1H-indazol-6-yl)phenol] as the compound, how does the “inhibition of BALF eosinophil counts” value read?
**A.** The value was “about 88%”.
